Reference: US20260008760A1, “DIPEPTIDYL PEPTIDASE 1 INHIBITORS AND USES THEREOF” (Insmed Incorporated, priority 2024, published 2026)

Experiments:
human DPP1 enzyme = human DPP1 enzyme (Homo sapiens, UniProt P53634); experiment: Human DPP1 Enzyme IC50 Assay; assay type: biochemical; parameters: was first proteolytically processed into its mature form using recombinant human cathepsin L; purchased R&D Systems; conditions: activated recombinant human DPP1, 400 μM H-Gly-Arg-AMC, 10 minutes pre-incubation at 37° C., pH 6.0; average of n runs; read-out: Avg. IC50 (Human DPP1 enzyme IC50 value ranges)
Procedure: Example 97. Human DPP1 Enzyme IC50 Assay
Recombinant human DPP1 enzyme (R&D Systems; Minneapolis, MN) was first proteolytically processed into its mature form using recombinant human cathepsin L (R&D Systems) in a buffer consisting of 20 mM citric acid pH 4.5, 150 mM NaCl, 1 mM EDTA and 10 mM DTT. Test articles were applied to activated human DPP1 enzyme in Assay Buffer (25 mM MES pH 6.0, 50 mM NaCl, 5 mM DTT) in a total reaction volume of 125 μL. 25 μL of compound in Assay Buffer plus 5% DMSO was first added to 50 μL of activated human DPP1 enzyme at a concentration of 1 ng/μL and allowed to pre-incubate for 10 minutes at 37° C. after which 50 μL of 1000 μM H-Gly-Arg-AMC substrate (Bachem; St. Torrance, CA) was added, giving final substrate concentration of 400 μM and a final DMSO concentration of 1%. Substrate cleavage was measured for 90 minutes at 37° C., with fluorescence at Excitation/Emission 350/450 nm measured every 5 minutes. DPP1 concentration was interpolated based on its activity relative to a standard curve of activated human recombinant DPP1 enzyme. IC50 values for each compound were calculated via the XLFit (IDBS Version 5.3.1.3) Add-On to Microsoft Excel using the four parameter fit equation y={A+[(B−A)]/[1+((C/x)^D)]}, which appears as equation number 205 (4 Parameter Logistic Model or Sigmoidal Dose-Response Model) in XLFit. Default constraints were used for each Parameter. IC50 was defined as the compound concentration at which 50% of enzyme activity was inhibited when compared to the no-compound control.

DPP1 in HL-60 cells = DPP1 in HL-60 cells (Homo sapiens, UniProt P53634); experiment: DPP1 Cell IC50 assay; assay type: cell-based; parameters: host or cells: HL-60 cells; conditions: 60 min pre-incubation, H-Gly-Phe-AFC substrate, average of n runs, read-out: Avg. IC50 (DPP1 Cell IC50 value ranges)
Procedure: Example 99. DPP1 Cell IC50 assay
HL-60 cells (ATCC; Manassas, VA) were maintained in RPMI-1640 supplemented with 20% heat-inactivated FBS and 1× Antibiotic Antimycotic (Cytiva; Marlborough, MA). Media was changed every three to four days and cells were not allowed to exceed 1×10^6 cells per mL. Prior to assay, cells were collected by centrifugation at 500 rcf for 3 minutes, resuspended in PBS and counted. Cells were diluted in PBS to a concentration of 5×10^5 live cells per mL and transferred to black 96-well plates for assay, 60 μL per well. Test articles were diluted in PBS plus 0.5% DMSO, and 20 μL was added to each assay well. Compound was allowed to pre-incubate with cells with gentle shaking at 100 rpm for 60 minutes at 37° C. in a cell culture incubator maintained at 5% CO2, after which 20 μL of 500 μM H-Gly-Phe-AFC substrate (MP Biomedicals; Solon, OH) was added to each well. Plates were returned to the incubator with shaking at 100 rpm for 30 minutes, after which fluorescence was measured at Excitation/Emission 400/505 nm. % Inhibition was calculated from RFU values compared to control cell wells that received only PBS plus 0.5% DMSO. IC50 values for each compound were calculated via the XLFit (IDBS Version 5.3.1.3) Add-On to Microsoft Excel using the four parameter fit equation y=(A+((B−A)/(1+((C/x)^D)))), which appears as equation number 205 (4 Parameter Logistic Model or Sigmoidal Dose-Response Model) in XLFit. IC50 was defined as the compound concentration at which 50% of enzyme activity was inhibited when compared to the no-compound control.

human DPP1 enzyme, sequence (P53634 25-134 limits assumed): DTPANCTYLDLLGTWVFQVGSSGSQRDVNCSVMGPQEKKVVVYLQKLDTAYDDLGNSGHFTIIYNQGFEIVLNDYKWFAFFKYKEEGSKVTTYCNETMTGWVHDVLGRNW
human DPP1 enzyme, sequence (P53634 231-394 limits assumed): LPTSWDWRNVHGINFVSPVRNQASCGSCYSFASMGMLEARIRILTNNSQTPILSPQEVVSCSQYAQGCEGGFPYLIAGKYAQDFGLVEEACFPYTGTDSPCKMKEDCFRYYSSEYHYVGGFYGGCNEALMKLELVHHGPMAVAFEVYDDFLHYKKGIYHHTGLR
human DPP1 enzyme, sequence (P53634 395-463 limits assumed): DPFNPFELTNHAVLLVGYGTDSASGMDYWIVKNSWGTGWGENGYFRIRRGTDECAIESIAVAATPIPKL
DPP1 in HL-60 cells, sequence (P53634 25-463): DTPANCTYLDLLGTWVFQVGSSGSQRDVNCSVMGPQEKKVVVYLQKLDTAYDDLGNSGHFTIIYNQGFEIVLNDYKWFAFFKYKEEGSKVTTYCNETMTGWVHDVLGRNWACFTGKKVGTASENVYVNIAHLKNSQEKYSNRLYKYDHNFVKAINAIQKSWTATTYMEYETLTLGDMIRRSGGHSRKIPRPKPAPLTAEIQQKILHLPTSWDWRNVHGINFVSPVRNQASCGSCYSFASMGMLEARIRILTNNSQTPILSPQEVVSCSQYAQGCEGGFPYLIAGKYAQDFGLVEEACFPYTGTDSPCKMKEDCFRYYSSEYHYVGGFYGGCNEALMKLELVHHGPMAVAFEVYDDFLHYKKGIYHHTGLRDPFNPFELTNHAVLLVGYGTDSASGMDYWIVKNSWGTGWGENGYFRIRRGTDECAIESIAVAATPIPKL

| Structure (SMILES) | IC50 (human DPP1 enzyme) | IC50 (DPP1 in HL-60 cells) |
| --- | --- | --- |
| CO[C@H]1CCO[C@H](C(=O)N[C@H](C#N)Cc2ccc(-c3cc4c(C)nc(C)cn4c3)cc2)CNC1 [Compound A42, (2S,6S)—N-[(1S)-1-cyano-2-(4-{1,3-dimethylpyrrolo[1,2-a]pyrazin-7-yl}phenyl)ethyl]-6-methoxy-1,4-oxazocane-2-carboxamide] | > 15 nM | 1 to 2.5 nM |
| CO[C@H]1CCO[C@H](C(=O)N[C@H](C#N)Cc2ccc(-c3cc4c(C)nc(C)cn4c3)cc2F)CNC1 [Compound A48, (2S,6S)—N-[(1S)-1-cyano-2-(4-{1,3-dimethylpyrrolo[1,2-a]pyrazin-7-yl}-2-fluorophenyl)ethyl]-6-methoxy-1,4-oxazocane-2-carboxamide] | 5 to 15 nM | 1 to 2.5 nM |
| N#C[C@H](Cc1ccc(-c2cc3cnccn3c2)cc1)NC(=O)[C@@H]1CNCCCO1 [Compound A54] | > 15 nM | > 2.5 nM |
| Cc1cc2cc(-c3ccc(C[C@@H](C#N)NC(=O)[C@@H]4CNCCCO4)cc3)cn2c(C)n1 [Compound A57] | > 15 nM | > 2.5 nM |
| Cc1nc(C)c2cc(-c3ccc(C[C@@H](C#N)NC(=O)[C@@H]4CNCCCO4)cc3)cn2c1C [Compound A60] | > 15 nM | > 2.5 nM |
| Cc1ncc(C)n2cc(-c3ccc(C[C@@H](C#N)NC(=O)[C@@H]4CNCCCO4)cc3)cc12 [Compound A63] | > 15 nM | > 2.5 nM |
| N#C[C@H](Cc1ccc(-c2cc3c(F)nccn3c2)cc1)NC(=O)[C@@H]1CNCCCO1 [Compound A66] | > 15 nM | > 2.5 nM |
| CO[C@@H]1CNC[C@@H](C(=O)N[C@H](C#N)Cc2ccc(-c3cc4c(C)nc(C)cn4c3)cc2F)OC1 [Compound A88-A] | > 15 nM | > 2.5 nM |
| CO[C@H]1CNC[C@@H](C(=O)N[C@H](C#N)Cc2ccc(-c3cc4c(C)nc(C)cn4c3)cc2F)OC1 [Compound A88-B] | < 5 nM | < 1 nM |
| Cn1ccc2ncc(-c3ccc(C[C@@H](C#N)NC(=O)[C@@H]4CNCCCO4)cc3)cc21 [Compound A143] | > 15 nM | > 2.5 nM |
| COC1CNC[C@@H](C(=O)N[C@H](C#N)Cc2ccc(-c3ccc4c(c3)CCC(=O)N4C)cc2)OC1 (stereo partly shown) [Compound A146] | < 5 nM | < 1 nM |
| CO[C@H]1CCO[C@H](C(=O)N[C@H](C#N)Cc2ccc(-c3ccc4c(c3)CCC(=O)N4C)cc2)CNC1 [Compound A147] | 5 to 15 nM | 1 to 2.5 nM |
| C[C@@H]1NC[C@@H](C(=O)N[C@H](C#N)Cc2ccc(-c3ccc4c(c3)CCC(=O)N4C)cc2)OC[C@@H]1O [Compound A148] | > 15 nM | > 2.5 nM |
| CN1C(=O)CCc2cc(-c3ccc(C[C@@H](C#N)NC(=O)[C@@H]4CNCC[C@@H](F)CO4)cc3)ccc21 [Compound A149] | > 15 nM | 1 to 2.5 nM |
| COC1CNC[C@@H](C(=O)N[C@H](C#N)Cc2ccc(-c3ccc4c(c3)CCC(=O)N4C)cc2F)OC1 (stereo partly shown) [Compound A152] | < 5 nM | < 1 nM |
| CO[C@H]1CCO[C@H](C(=O)N[C@H](C#N)Cc2ccc(-c3ccc4c(c3)CCC(=O)N4C)cc2F)CNC1 [Compound A153] | < 5 nM | < 1 nM |
| C[C@@H]1NC[C@@H](C(=O)N[C@H](C#N)Cc2ccc(-c3ccc4c(c3)CCC(=O)N4C)cc2F)OC[C@@H]1O [Compound A154] | 5 to 15 nM | 1 to 2.5 nM |

Now from value to molecule:

| IC50 (human DPP1 enzyme) | IC50 (DPP1 in HL-60 cells) | Structure (SMILES) |
| --- | --- | --- |
| 5 to 15 nM | 1 to 2.5 nM | CO[C@@H]1CCNC[C@@H](C(=O)N[C@H](C#N)Cc2ccc(-c3cc4c(C)nc(C)cn4c3)c(F)c2)OC1 [Compound A35, (2S,7R)—N-[(1S)-1-cyano-2-(4-{1,3-dimethylpyrrolo[1,2-a]pyrazin-7-yl}-3-fluorophenyl)ethyl]-7-methoxy-1,4-oxazocane-2-carboxamide] |
| > 15 nM | > 2.5 nM | CO[C@@H]1CCNC[C@@H](C(=O)N[C@H](C#N)Cc2ncc(-c3ccc4c(F)nn(C)c4c3)s2)OC1 [Compound A36, (2S,7R)—N-[(1S)-1-cyano-2-[5-(3-fluoro-1-methylindazol-6-yl)-1,3-thiazol-2-yl]ethyl]-7-methoxy-1,4-oxazocane-2-carboxamide] |
| > 15 nM | > 2.5 nM | CO[C@@H]1CCNC[C@@H](C(=O)N[C@H](C#N)Cc2ncc(-c3ccc4c(n3)CCCN4)s2)OC1 [Compound A37, (2S,7R)—N—((S)-1-cyano-2-(5-(5,6,7,8-tetrahydro-1,5-naphthyridin-2-yl)thiazol-2-yl)ethyl)-7-methoxy-1,4-oxazocane-2-carboxamide] |
| > 15 nM | > 2.5 nM | CO[C@@H]1CCNC[C@@H](C(=O)NC(C#N)Cc2cnc(-c3ccc4c(n3)CCCN4)s2)OC1 (stereo partly drawn) [Compound A39, (2S,7R)—N-{1-cyano-2-[2-(5,6,7,8-tetrahydro-1,5-naphthyridin-2-yl)-1,3-thiazol-5-yl]ethyl}-7-methoxy-1,4-oxazocane-2-carboxamide] |
| > 15 nM | > 2.5 nM | CN1CCCc2ncc(-c3ccc(C[C@@H](C#N)NC(=O)[C@@H]4CNCCCO4)cc3)cc21 [Compound A40, (2S)—N-[(1S)-1-cyano-2-[4-(5-methyl-7,8-dihydro-6H-1,5-naphthyridin-3-yl)phenyl]ethyl]-1,4-oxazepane-2-carboxamide] |
| > 15 nM | > 2.5 nM | N#C[C@H](Cc1ccc(-c2cnc3c(c2)NCCC3)cc1)NC(=O)[C@@H]1CNCCCO1 [Compound A41, (2S)—N-[(1S)-1-cyano-2-[4-(5,6,7,8-tetrahydro-1,5-naphthyridin-3-yl)phenyl]ethyl]-1,4-oxazepane-2-carboxamide] |
| > 15 nM | > 2.5 nM | CO[C@H]1CCO[C@H](C(=O)N[C@H](C#N)Cc2ccc(-c3ccc4c(n3)CCCN4)cc2)CNC1 [Compound A43, (2S,6S)—N—((S)-1-cyano-2-(4-(5,6,7,8-tetrahydro-1,5-naphthyridin-2-yl)phenyl)ethyl)-6-methoxy-1,4-oxazocane-2-carboxamide] |
| > 15 nM | > 2.5 nM | CO[C@H]1CCO[C@H](C(=O)N[C@H](C#N)Cc2ccc(-c3cc4c(C)nc(C)cn4c3)s2)CNC1 [Compound A44, (2S,6S)—N-[(1S)-1-cyano-2-(5-{1,3-dimethylpyrrolo[1,2-a]pyrazin-7-yl}thiophen-2-yl)ethyl]-6-methoxy-1,4-oxazocane-2-carboxamide] |
| 5 to 15 nM | > 2.5 nM | CO[C@H]1CCO[C@H](C(=O)N[C@H](C#N)Cc2ccc(-c3ccc4c(n3)CCCN4)cc2F)CNC1 [Compound A49, (2S,6S)—N-[(1S)-1-cyano-2-[2-fluoro-4-(5,6,7,8-tetrahydro-1,5-naphthyridin-2-yl)phenyl]ethyl]-6-methoxy-1,4-oxazocane-2-carboxamide] |
| < 5 nM | 1 to 2.5 nM | CO[C@@H]1CCNC[C@@H](C(=O)N[C@H](C#N)Cc2ccc(-c3ccc4c(n3)CCCN4)cc2F)OC1 [Compound A50, (2S,7R)—N-[(1S)-1-cyano-2-[2-fluoro-4-(5,6,7,8-tetrahydro-1,5-naphthyridin-2-yl)phenyl]ethyl]-7-methoxy-1,4-oxazocane-2-carboxamide] |
| < 5 nM | 1 to 2.5 nM | CO[C@@H]1CCNC[C@@H](C(=O)N[C@H](C#N)Cc2ccc(-c3ccc4c(c3)CCC(=O)N4C)cc2)OC1 [Compound A145] |
| < 5 nM | 1 to 2.5 nM | CO[C@@H]1CCNC[C@@H](C(=O)N[C@H](C#N)Cc2ccc(-c3ccc4c(c3)CCC(=O)N4C)cc2F)OC1 [Compound A151] |
